From patent EP4656642A1, “ESTROGEN RECEPTOR PROTEOLYSIS TARGETING CHIMERA COMPOUND AND USE THEREOF” (GAN & LEE PHARM CO., LTD, priority 2023, dated 2024)
pIC50: −log10 of the molar value.

How the values were obtained:
Type in all cases: cell-based
MCF-7 cells = assay: Inhibition of cell proliferation of MCF-7 cells (CCK-8, 9 days); conditions: treated for 9 days, CCK-8 kit (Table 6)
Outline: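 Read-out was CCK-8 viability after 9-day continuous exposure (37°C, 5% CO2) of MCF-7 cells plated at 800/well in 10% FBS DMEM across several compound concentrations. Values are proliferation IC50s.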

ERα [1] = biological target: T1, ERα (Homo sapiens, UniProt P03372); assay: Degradation of ERα in T-47D cells (immunoblotting, 4 h); design: host or cells: T-47D
T1 sequence (P03372 1-595): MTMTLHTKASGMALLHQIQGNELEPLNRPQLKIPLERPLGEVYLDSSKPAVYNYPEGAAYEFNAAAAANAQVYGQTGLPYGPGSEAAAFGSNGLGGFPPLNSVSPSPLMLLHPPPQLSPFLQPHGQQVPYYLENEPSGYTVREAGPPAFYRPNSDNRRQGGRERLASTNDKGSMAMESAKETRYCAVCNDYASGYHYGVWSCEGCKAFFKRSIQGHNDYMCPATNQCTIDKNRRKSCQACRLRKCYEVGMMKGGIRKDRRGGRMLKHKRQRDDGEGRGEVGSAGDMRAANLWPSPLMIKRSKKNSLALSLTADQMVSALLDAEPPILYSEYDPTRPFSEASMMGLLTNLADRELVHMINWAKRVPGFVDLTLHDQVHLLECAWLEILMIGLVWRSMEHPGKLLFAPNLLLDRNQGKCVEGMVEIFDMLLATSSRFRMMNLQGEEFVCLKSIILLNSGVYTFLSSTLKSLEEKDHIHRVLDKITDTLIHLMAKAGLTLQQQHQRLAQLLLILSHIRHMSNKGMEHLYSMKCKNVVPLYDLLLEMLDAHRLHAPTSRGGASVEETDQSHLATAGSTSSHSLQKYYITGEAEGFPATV
Outline: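 ERα protein levels were assessed by immunoblot of RIPA lysates (with protease inhibitor) after 4 h exposure at 37°C. Compound was added in DMSO to T-47D cells at final concentrations of 0.15-1000 nM.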

ERα [2] = biological target: T1, ERα; assay: Degradation of ERα in MCF-7 cells (immunoblotting, 4 h)
Outline: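 Degradation rate reflects ERα band intensity, corrected to an internal reference protein, relative to control. Values come from Western blotting of lysates from MCF-7 cells exposed 4 h at 37°C to compounds at final concentrations of 0.15-1000nM.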

pIC50 (MCF-7 cells) | Degradation rate (%) of ERα in T-47D cells (ERα [1]; 1nM compound) | Degradation rate (%) of ERα in T-47D cells (ERα [1]; 10nM compound) | Degradation rate (%) of ERα in MCF-7 cells (ERα [2]; 1nM compound) | Degradation rate (%) of ERα in MCF-7 cells (ERα [2]; 10nM compound) | Compound
6.95 | -7% | 9% | 3% | 18% | O=C1CCC(N2Cc3c(ccc4c3OC3(CC4)CCN(C4CCC5(CC4)CN(c4ccc([C@@H]6c7ccc(O)cc7CC[C@@H]6c6ccccc6)cc4)C5)CC3)C2=O)C(=O)N1 (some centres unmarked) [L22]
6.14 | 36% | 58% | 17% | 62% | O=C1CCC(N2Cc3c(ccc4c3OCC43CCN(CC4CCN(C5CCN(c6ccc([C@@H]7c8ccc(O)cc8CC[C@@H]7c7ccccc7)cc6)CC5)CC4)CC3)C2=O)C(=O)N1 (some centres unmarked) [K6]
5.03 | 0% | 36% | -28% | -4% | O=C1CCC(N2Cc3cc4c(cc3C2=O)CCC2(CN(C3CCN(C(=O)c5ccc([C@@H]6c7ccc(O)cc7CC[C@@H]6c6ccccc6)cc5)CC3)C2)O4)C(=O)N1 (some centres unmarked) [H10]
7.74 | 62% | 85% | 45% | 66% | O=C1CCC(N2Cc3c(ccc4c3OCC43CCN(C4CC5CCC(C4)N5C(=O)C4CCN(c5ccc([C@@H]6c7ccc(O)cc7CC[C@@H]6c6ccccc6)cc5)CC4)CC3)C2=O)C(=O)N1 (some centres unmarked) [G10]
6.03 | 29% | 68% | 14% | 45% | O=C1CCC(N2Cc3ccc4c(c3C2=O)OCC2(CCN(C3CCC5(CC3)CN(c3ccc([C@@H]6c7ccc(O)cc7CC[C@@H]6c6ccccc6)cc3)C5)CC2)C4)C(=O)N1 (some centres unmarked) [L6]
8.82 | 73% | 79% | 61% | 65% | O=C1CCC(N2Cc3c(ccc4c3OCC43CCN(C4CCN(C(=O)C5CCN(c6ccc(C7c8ccc(O)cc8CCC7c7ccccc7)cc6)CC5)C(C(=O)N5CCCCC5)C4)CC3)C2=O)C(=O)N1 (centres unmarked) [K31]
6.44 | 49% | 82% | 39% | 76% | CN(C(=O)CN1CCC2(CC1)COc1c2ccc2c1CN(C1CCC(=O)NC1=O)C2=O)C1CC2(CCN(c3ccc([C@@H]4c5ccc(O)cc5CC[C@@H]4c4ccccc4)cc3)CC2)C1 (some centres unmarked) [H47]
6.05 | 55% | 80% | 38% | 56% | C[C@H]1C[C@@H](N2CCC3(CC2)COc2c3ccc3c2CN(C2CCC(=O)NC2=O)C3=O)CCN1C(=O)C1CCN(c2ccc([C@@H]3c4ccc(O)cc4CC[C@@H]3c3ccccc3)cc2)CC1 (some centres unmarked) [G11]
8.17 | 43% | 80% | 30% | 71% | O=C1CCC(N2Cc3c(ccc4c3OCC43CCN(C4CCN(C5CCN(c6ccc(C7c8ccc(O)cc8CCC7c7ccccc7)cc6)CC5)CC4F)CC3)C2=O)C(=O)N1 (centres unmarked) [G13]
8.05 | 49% | 79% | 10% | 77% | O=C1CCC(N2Cc3c(ccc4c3OCC43CCN(C[C@H]4CC[C@@H](OC5CCN(c6ccc([C@@H]7c8ccc(O)cc8CC[C@@H]7c7ccccc7)cc6)CC5)CC4)CC3)C2=O)C(=O)N1 (some centres unmarked) [G25]
8.29 | 48% | 77% | 50% | 71% | CN(C(=O)CN1CCC2(CC1)COc1c2ccc2c1CN(C1CCC(=O)NC1=O)C2=O)C1CCC2(CC1)CN(c1ccc([C@@H]3c4ccc(O)cc4CC[C@@H]3c3ccccc3)cc1)C2 (some centres unmarked) [H49]
5.63 | 40% | 77% | 14% | 45% | O=C1CCC(N2Cc3cc4c(cc3C2=O)CCC2(CN(CC3CCN(C(=O)C5CCN(c6ccc([C@@H]7c8ccc(O)cc8CC[C@@H]7c7ccccc7)cc6)CC5)CC3)C2)O4)C(=O)N1 (some centres unmarked) [K40]
8.18 | 56% | 65% | 57% | 45% | C[C@@H]1Cc2cc(O)ccc2C(c2c(F)cc(N3CCN(C[C@H]4CC[C@H](C(=O)N5CCC6(CC5)COc5c6ccc6c5CN(C5CCC(=O)NC5=O)C6=O)CC4)CC3)cc2F)N1CC(F)F (some centres unmarked) [I6]
6.71 | 18% | 35% | 16% | 42% | O=C1CCC(N2Cc3c(ccc4c3OCC43CCN(C4CC5(CCC6(CCN(C7CCN(c8ccc([C@@H]9c%10ccc(O)cc%10CC[C@@H]9c9ccccc9)cc8)CC7)CC6)CC5)C4)CC3)C2=O)C(=O)N1 (some centres unmarked) [K15]

Continued, molecule first:

Compound | pIC50 (MCF-7 cells) | Degradation rate (%) of ERα in T-47D cells (ERα [1]; 1nM compound) | Degradation rate (%) of ERα in T-47D cells (ERα [1]; 10nM compound) | Degradation rate (%) of ERα in MCF-7 cells (ERα [2]; 1nM compound) | Degradation rate (%) of ERα in MCF-7 cells (ERα [2]; 10nM compound)
O=C1CCC(N2C(=O)c3cc4c(cc3C2=O)OC2(CCN(C(=O)CN3CCC5(CC3)CCN(c3ccc([C@@H]6c7ccc(O)cc7CC[C@@H]6c6ccccc6)cc3)CC5)CC2)C4)C(=O)N1 (some centres unmarked) [A64] | 6.69 | 12% | 61% | 13% | 47%
O=C1CCC(N2Cc3c(ccc4c3OCC43CCN(C(=O)CN4CCC5(CC4)CCN(c4ccc([C@@H]6c7ccc(O)cc7CC[C@@H]6c6ccccc6)cc4)C5)CC3)C2=O)C(=O)N1 (some centres unmarked) [A75] | 8.11 | 53% | 76% | 16% | 14%
CN(C1CCN(c2ccc([C@@H]3c4ccc(O)cc4CC[C@@H]3c3ccccc3)cc2)CC1)[C@H]1CC[C@@H](C(=O)N2CCC3(CC2)COc2c3ccc3c2CN(C2CCC(=O)NC2=O)C3=O)CC1 (some centres unmarked) [B35] | 7.30 | 74% | 88% | 60% | 72%
O=C1CCC(N2Cc3c(ccc4c3OCC43CCN(C4CN(C(=O)C5CCN(c6ccc([C@@H]7c8ccc(O)cc8CC[C@@H]7c7ccccc7)cc6)CC5)C4)CC3)C2=O)C(=O)N1 (some centres unmarked) [D4] | 5.45 | 54% | 79% | 41% | 69%
O=C1CCC(N2Cc3c(ccc4c3OCC43CCN(C4CCN(C(=O)C5CCN(c6ccc([C@@H]7c8ccc(O)cc8CC[C@@H]7c7ccccc7)cc6)CC5)CC4)CC3)C2=O)C(=O)N1 (some centres unmarked) [A78] | 8.47 | 79% | 89% | 64% | 78%
O=C1CCC(N2Cc3cc4c(cc3C2=O)OC2(CC4)CN(C3CCN(C(=O)C4CCN(c5ccc([C@@H]6c7ccc(O)cc7CC[C@@H]6c6ccccc6)cc5)CC4)CC3)C2)C(=O)N1 (some centres unmarked) [A82] | 6.35 | 51% | 78% | 16% | 51%
O=C1CCC(N2Cc3c(ccc4c3OCC43CCN(CC(=O)N4CC5(CCC(C#Cc6ccc([C@@H]7c8ccc(O)cc8CC[C@@H]7c7ccccc7)cc6)CC5)C4)CC3)C2=O)C(=O)N1 (some centres unmarked) [B30] | 8.00 | 15% | 46% | 19% | 40%
O=C1CCC(N2Cc3c(ccc4c3OCC43CCN(C(=O)CN4CCC5(CC4)CCN(c4ccc([C@@H]6c7ccc(O)cc7CC[C@@H]6c6ccccc6)cc4)CC5)CC3)C2=O)C(=O)N1 (some centres unmarked) [A62] | 7.82 | 73% | 89% | 52% | 82%
